{"source": "patent US11007250B2", "about": "“Methods and kits for treating pain” (Duke University, priority 2017, dated 2021)", "key": {"mice": {"test_system": "mice", "assay": "Tail-flick and hot-plate tests of morphine antinociception", "type": "in vivo, mouse", "settings": "morphine 10 mg/kg s.c.", "procedure": "Tail-flick test. All animals were habituated to testing environment for at least 2 days before baseline testing. Mice were gently held by a hand with a terry glove and with tails exposed. The distal 3 cm of the tail was immersed into the 50° C. hot water. The tail-flick latency was the time required for a mouse to flick or remove its tail out of the water. A maximum cut-off value of 15 seconds was set to avoid thermal injury. Tail-flick latency was determined both before and after drug injection. Data are expressed as the maximum possible effect (MPE) calculated as MPE (%)=100×[(postdrug response baseline response)/(cutoff response−baseline response)]. The MPE (%) data from each animal were converted to area under the curve (AUC).\nHot-plate test. All animals were habituated to testing environment for at least 2 days before baseline testing. […] A maximum cut-off value of 40 seconds was set to avoid tissue injury. Data are expressed as the maximum possible effect (MPE) calculated as MPE (%)=100×[(postdrug response−baseline response)/(cutoff response−baseline response)]. The MPE (%) data from each animal were converted to area under the curve (AUC)."}, "[1]": {"test_system": "T cell, macrophage and inflammatory cytokine marker mRNA", "assay": "Quantitative real-time RT-PCR of immune markers in melanoma-bearing hindpaw skin", "settings": "3 h after sPD-1 treatment (5 μg, i.pl.), MCI-4w"}, "melanoma-bearing mice": {"test_system": "melanoma-bearing mice", "assay": "Mouse melanoma model: spontaneous pain, von Frey test, CPP", "type": "in vivo", "settings": "for spontaneous pain (licking/flinching) in melanoma-bearing mice: SSG 5 μg i.pl."}, "[2]": {"test_system": "lamina 110 neurons in spinal cord slices", "assay": "Patch clamp recordings of sEPSCs in spinal cord slices", "type": "cell-based, mouse", "settings": "PD-L1 30 ng/ml, sPD-1 30 ng/ml perfusion; Nivolumab 300 ng/ml, 3 h"}, "naive mice": {"test_system": "naive mice", "assay": "Basal pain in naive mice (von Frey test, spontaneous pain)", "type": "in vivo, mouse"}, "[3]": {"test_system": "small-diameter neurons of whole-mount DRG", "assay": "Whole-cell patch clamp recordings in whole mount DRGs ex vivo", "type": "cell-based, mouse", "settings": "WT whole mount DRG; sPD-1 30 ng/ml, Nivolumab 300 ng/ml", "procedure": "Whole-cell patch clamp recordings in whole mount DRGs of mice ex vivo. L4-L5 DRGs were carefully removed 4 days after sham surgery or CCI surgery and placed in cold oxygenated ACSF. The connective tissue was gently removed under a microscope and the ganglia were digested with a mixture of 0.4 mg/mL trypsin (Sigma) and 1.0 mg/ml type-A collagenase (Sigma) for 30 min at 37° C. The intact ganglia were then incubated in ACSF oxygenated with 95% O2 and 5% CO2 at 28° C. for at least 1 h before transferring them to the recording chamber. DRG neurons were visualized with a 40× water-immersion objective using a BX51WI microscope (Olympus). Whole-cell current and voltage recordings were acquired with an Axon700B amplifier. Patch pipettes (4-7 MO) were pulled from borosilicate glass capillaries on P-97 puller. The recording chamber (300 μl) was continuously superfused (3-4 ml/min). Series resistance was compensated for (>80%), and leak subtraction was performed. The pipette solution contained (in mM): 140 KCl, 2 MgCl2, 10 Hepes, 2 Mg-ATP, pH 7.4. Osmolarity was adjusted to 290-300 mOsm. Data was acquired with a Digidata 1322A acquisition system (molecular devices) using pCLAMP 9.0 software. Signals were low-pass filtered at 5 kHz, sampled at 10 kHz and analyzed offline."}, "[4]": {"test_system": "dissociated small-diameter mouse DRG neurons", "assay": "Whole-cell patch clamp recordings in dissociated mouse DRG neurons", "type": "cell-based", "settings": "SSG 11 μM", "procedure": "Whole-cell patch clamp recordings in dissociated mouse DRG neuron. DRGs were aseptically removed from 4-7 week-old mice and digested with collagenase (0.2 mg/ml, Roche)/dispase-II (3 mg/ml, Roche) for 120 min. Cells were placed on glass cover slips coated with poly-D-lysine and grown in a neurobasal defined medium (10% fetal bovine serum and 2% B27 supplement) at 37° C. with 5% CO2/95% air for 24 h before experiments. Whole-cell voltage clamp recordings were performed at room temperature to measure transient sodium currents and action potentials, respectively, with an EPC10 amplifier (HEKA) and an Axopatch-200B amplifier with a Digidata 1440A (Axon Instruments) (Xu, Z Z, et al. 2015). The patch pipettes were pulled from borosilicate capillaries (Chase Scientific Glass Inc.). When filled with the pipette solution, the resistance of the pipettes was 4-5 MQ. The recording chamber (300 μl) was continuously superfused (3-4 ml/min). Series resistance was compensated for (>80%), and leak subtraction was performed. Data were low-pass-filtered at 2 KHz, sampled at 10 KHz. The pClamp10 (Axon Instruments) software was used during experiments and analysis. For sodium current recording, pipette solution contained (in mM): CsCl 130, NaCl 9, MgCl2 1, EGTA 10, HEPES 10, adjusted to pH 7.4 with CsOH. […] RMP was measured without a current injection."}, "[5]": {"test_system": "TREK2 in CHO cells co-expressing PD-1 and TREK2", "assay": "Patch clamp recordings in transfected CHO cells", "type": "cell-based", "settings": "SSG", "procedure": "CHO cell culture, transfection and electrophysiology. CHO cell line was purchased from Duke Cell Culture Facility. Cells were cultured in high glucose (4.5 g/L) Dulbecco's Modified Eagle's Medium containing 10% (v/v) fetal bovine serum (Gibco). Transfection (1 μg cDNA) was performed with Lipofectamine™ 2000 Reagent (Invitrogen) at 70% confluency and the transfected cells were cultured in the same growth medium for 48 h before electrophysiological and biochemical studies. PD1/PDCD1 cDNA construct (SC117011, NM_005018) and TREK2/KCNK10 cDNA construct (SC110477, NM_021161) were purchased from Origene Technologies.\nWhole-cell patch clamp recordings in transfected CHO cells were conducted at room temperature using patch pipettes with resistances of 5-6 MD. The recording chamber was continuously superfused (3-4 ml/min). The data were acquired at a rate of 10 kHz and filtered at 3 kHz using an EPC-10 amplifier (HEKA, Germany). Pipette solution contained (in mM): K-gluconate 126, NaCl 10, MgCl2 1, EGTA 10, NaATP 2, and MgGTP 0.1, adjusted to pH 7.3 with KOH. The external solution was composed of (in mM): NaCl 140, KCl 5, CaCl2 2, MgCl2 1, HEPES 10, glucose 10, adjusted to pH 7.4 with NaOH. […] In current-clamp experiments, the resting membrane potential was measured without any membrane potential compensation."}, "[6]": {"test_system": "phosphorylation of SHP-1 (pSHP-1)", "assay": "pSHP-1 immunostaining in mouse DRG neurons", "type": "cell-based", "settings": "dissociated DRG neurons; PD-L1 10 ng/ml, SSG 11 μM"}, "[7]": {"test_system": "small-diameter human DRG neurons", "assay": "Patch clamp recordings in dissociated human DRG neurons", "type": "cell-based", "settings": "SSG 11 μM", "procedure": "Primary cultures and patch clam recordings in human DRG neurons. Non-diseased human DRGs were obtained from donors through NDRI with permission of exemption from Duke IRB. Postmortem L3-L5 DRGs were dissected from 5 male donors at the age of 27, 31, 43, 54, and 67 and delivered in ice-cold culture medium to the laboratory at Duke University within 24-72 hours of death. Upon the delivery, DRGs were rapidly dissected from nerve roots and minced in a calcium-free HBSS (Gibco). Human DRG cultures were prepared as previously reported (Xu, Z Z, et al. 2015). DRGs were digested at 37° C. in humidified O2 incubator for 120 min with collagenase Type II (Worthington, 285 units/mg, 12 mg/ml final concentration) and dispase II (Roche, 1 unit/mg, 20 mg/ml) in PBS with 10 mM HEPES, pH adjusted to 7.4 with NaOH. DRGs were mechanically dissociated using fire-polished pipettes, filtered through a […] nylon mesh and centrifuged (500×g for 5 min). The pellet was resuspended, plated on 0.5 mg/ml poly-D-lysine-coated glass coverslips, and cells were grown in Neurobasal medium supplemented with 10% FBS, 2% B-27 supplement, 1% N-2 supplement, and 1% penicillin/streptomycin. Whole-cell patch clamp recordings in small-diameter DRG neurons (<55 μm) were conducted at room temperature using patch pipettes with resistances of 2-3 MD. […] The resting membrane potential was measured without a current injection."}, "[8]": {"settings": "MCI-4w, sPD-1 5 μg i.pl., siRNA 2 μg peri-sciatic, Nivolumab 3-10 mg/kg i.v., RMP1-14 10 mg/kg i.v."}, "[9]": {"settings": "i.pl., sPD-1 5 μg, RMP1-14 5 μg, Nivolumab 10 μg"}}}
{"compound": "CN1CC[C@]23c4c5ccc(O)c4O[C@H]2[C@@H](O)C=C[C@H]3[C@H]1C5", "note": "[morphine]", "values": [{"measurement": "analgesic effect of morphine after human IgG", "setting": "mice; human IgG i.v.", "value": "typical analgesic effect"}, {"measurement": "analgesic effect of morphine in Pd1−/− mice compared to WT", "setting": "mice", "value": "reduced analgesic (antinociceptive) effect"}]}
{"compound": "sPD-1: soluble PD-1 used to neutralize PD-L1; Mouse PD-1 from R&D (1021-PD-100)", "values": [{"measurement": "mRNA levels of immune/inflammatory markers in hindpaw skin", "setting": "[1]", "value": "did not alter"}, {"measurement": "mechanical allodynia in melanoma-bearing mice", "setting": "melanoma-bearing mice; [8]", "value": "induced mechanical allodynia"}, {"measurement": "spontaneous pain (licking/flinching) in melanoma-bearing mice", "setting": "melanoma-bearing mice; [8]", "value": "marked spontaneous pain"}, {"measurement": "conditioned place preference (CPP), ongoing pain", "setting": "melanoma-bearing mice; i.pl. sPD-1, two-chamber test", "value": "marked CPP"}, {"measurement": "onset of spontaneous pain after injection", "setting": "melanoma-bearing mice; sPD-1 5 μg i.pl., MCI-4w", "value": "10 to 30", "unit": "min"}, {"measurement": "amplitude of spontaneous EPSCs (sEPSCs)", "setting": "[2]", "value": "not amplitude"}, {"measurement": "frequency of spontaneous EPSCs (sEPSCs)", "setting": "[2]", "value": "increased sEPSC frequency"}, {"measurement": "duration of mechanical allodynia in naive mice", "setting": "naive mice; [9]", "value": 3, "unit": "h"}, {"measurement": "mechanical allodynia in naive mice", "setting": "naive mice; [9]", "value": "transient mechanical allodynia"}, {"measurement": "spontaneous pain in naive mice", "setting": "naive mice; sPD-1 5 μg i.pl.", "value": "without causing spontaneous pain"}, {"measurement": "firing rate of action potentials", "setting": "[3]", "value": "increased the firing rate"}]}
{"compound": "O.O.O.O.O.O.O.O.O.O=C([O-])[C@@H]1[O][Sb]2([O-])([O][Sb]34([OH])[O][C@H]([C@H](O)CO)[C@H]([O]3)[C@H](C(=O)[O-])[O]4)[O][C@H]([C@H](O)CO)[C@@H]1[O]2.[Na+].[Na+].[Na+]", "note": "[SSG, sodium stibogluconate]", "values": [{"measurement": "spontaneous pain (licking/flinching) in melanoma-bearing mice", "setting": "melanoma-bearing mice; [8]", "value": "elicited spontaneous pain"}, {"measurement": "effect on PD-L1-induced inhibition of sodium currents", "setting": "[4]", "value": "partially blocked"}, {"measurement": "effect on analgesic effect of PD-L1", "setting": "naive mice; i.pl. SSG plus PD-L1, naive mice", "value": "abolished"}, {"measurement": "effect on PD-L1-induced RMP change", "setting": "[5]; CHO cells co-expressing PD-1 and TREK2", "value": "blocked"}, {"measurement": "effect on PD-L1 potentiation of TREK2 currents and Erev shift", "setting": "[5]; PD-1/TREK2 co-expressing CHO cells", "value": "abolished"}, {"measurement": "effect on PD-L1-induced SHP-1 phosphorylation", "setting": "[6]", "value": "blocked"}, {"measurement": "effect on PD-L1-induced inhibition of sodium currents", "setting": "[7]", "value": "completely blocked"}]}
